Measurements: US10131652B2, “Pyrimidinyloxy benzene derivatives as herbicides” (E. I. DU PONT DE NEMOURS AND COMPANY, priority 2014, dated 2018)

Legend:
Format in all cases: in vivo
[1] = tested on: Italian ryegrass (Lolium multiflorum); experiment: Test B pre-/postemergence plant response
In short: (§1)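 Visual injury scores on a 0–100 scale (100 = complete control) relative to untreated plants, taken about 10 days post-treatment in greenhouse. Treatments were a directed preemergence soil spray and a postemergence spray at one- to two-leaf stage, using surfactant-containing solvent formulation.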

[2] = tested on: barnyardgrass (Echinochloa crus-galli); experiment: Test B pre-/postemergence plant response
In short: as §1

corn (Zea mays) = experiment: Test B pre-/postemergence plant response
In short: as §1

[3] = tested on: giant foxtail (Setaria faberii); experiment: Test B pre-/postemergence plant response
In short: as §1

kochia (Kochia scoparia) = experiment: Test B pre-/postemergence plant response
In short: as §1

[4] = tested on: pigweed (Amaranthus retroflexus); experiment: Test B pre-/postemergence plant response
In short: as §1

[5] = tested on: ragweed (common ragweed, Ambrosia elatior); experiment: Test B pre-/postemergence plant response
In short: as §1

[6] = tested on: wheat (Triticum aestivum); experiment: Test B pre-/postemergence plant response
In short: as §1

[7] = tested on: blackgrass (Alopecurus myosuroides); experiment: Test B postemergence plant response
In short: (§2)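 Visual injury ratings, 0 = no effect to 100 = complete control, versus untreated controls approximately 10 days after postemergence spraying in greenhouse. Plants were at one- to two-leaf stage, 2 to 10 cm tall, in loam soil/sand blend; a dash denotes no result.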

[8] = tested on: galium (catchweed bedstraw, Galium aparine); experiment: Test B postemergence plant response
In short: as §2

[9] = tested on: barnyardgrass (Echinochloa crus-galli); experiment: Test C flooded paddy test plant response; conditions: Flood, 250 g ai/ha; scale of 0 to 100 where 0 is no effect and 100 is complete control; 13 to 15 days
In short: (§3)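 Scored visually on a 0–100 scale (100 = complete control) against untreated plants 13 to 15 days after treatment in the greenhouse. Compounds went into paddy water of pots flooded to 3 cm, holding 2-leaf-stage plants.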

[10] = tested on: ducksalad (Heteranthera limosa); experiment: Test C flooded paddy test plant response; conditions: Flood, 250 g ai/ha; scale of 0 to 100 where 0 is no effect and 100 is complete control; 13 to 15 days
In short: as §3

rice (Oryza sativa) = experiment: Test C flooded paddy test plant response; conditions: Flood, 250 g ai/ha; scale of 0 to 100 where 0 is no effect and 100 is complete control; 13 to 15 days
In short: as §3

[11] = tested on: small-flower umbrella sedge (Cyperus difformis); experiment: Test C flooded paddy test plant response; conditions: Flood, 250 g ai/ha; scale of 0 to 100 where 0 is no effect and 100 is complete control; 13 to 15 days
In short: as §3

[12] = 31 g ai/ha, Preemergence, 0 to 100 scale where 0 is no effect and 100 is complete control
[13] = 125 g ai/ha, postemergence, 0 to 100 scale, 0 no effect, 100 complete control
[14] = Postemergence, 31 g ai/ha, 0 to 100 scale (0 no effect, 100 complete control)
[15] = Preemergence, 125 g ai/ha, 0 to 100 scale (0 no effect, 100 complete control)

| SMILES | Plant response rating, Ryegrass, Italian [1, 12] | Plant response rating, Ryegrass, Italian [1, 13] | Plant response rating, Ryegrass, Italian [1, 14] | Ryegrass, Italian plant response rating [1, 15] | Plant response rating, Barnyardgrass [2, 12] | Plant response rating, Barnyardgrass [2, 13] | Plant response rating, Barnyardgrass [2, 14] | Barnyardgrass plant response rating [2, 15] | Plant response rating, Corn (corn (Zea mays); [13]) | Plant response rating, Corn (corn (Zea mays); [14]) | Plant response rating, Foxtail, Giant [3, 12] | Plant response rating, Foxtail, Giant [3, 13] | Plant response rating, Foxtail, Giant [3, 14] | Foxtail, Giant plant response rating [3, 15] | Plant response rating, Kochia (kochia (Kochia scoparia); [12]) | Plant response rating, Kochia (kochia (Kochia scoparia); [13]) | Plant response rating, Kochia (kochia (Kochia scoparia); [14]) | Kochia plant response rating (kochia (Kochia scoparia); [15]) | Plant response rating, Pigweed [4, 12] | Plant response rating, Pigweed [4, 13] | other results |
| --- | --- | --- | --- | --- | --- | --- | --- | --- | --- | --- | --- | --- | --- | --- | --- | --- | --- | --- | --- | --- | --- |
| Clc1cnc(Oc2ccccc2-c2ccns2)nc1 [Compound 233] | 0 | 0 | 0 | 0 | 0 | 10 | 0 | 0 | 10 | 0 | 0 | 0 | 0 | 0 | 0 | 0 | 0 | 0 | 0 | 20 | Plant response rating, Pigweed [4, 14]: 0; Pigweed plant response rating [4, 15]: 0; Plant response rating, Ragweed [5, 12]: 0; Plant response rating, Ragweed [5, 13]: 0; Plant response rating, Ragweed [5, 14]: 0; Ragweed plant response rating [5, 15]: 0; Plant response rating, Wheat [6, 13]: 0; Plant response rating, Wheat [6, 14]: 0; Plant response rating, Blackgrass [7, 13]: 10; Plant response rating, Blackgrass [7, 14]: 0; Plant response rating, Galium [8, 13]: 0; Plant response rating, Galium [8, 14]: 0; Barnyardgrass plant response rating [9]: 0; Ducksalad plant response rating [10]: 0; Rice plant response rating (rice (Oryza sativa)): 0; Sedge, Umbrella plant response rating [11]: 0 |
| Brc1cnc(Oc2ccccc2-c2ccns2)nc1 [Compound 234] | 0 | 0 | 0 | 0 | 0 | 0 | 0 | 0 | 10 | 0 | 0 | 0 | 0 | 0 | 0 | 0 | 0 | 0 | 0 | 20 | Plant response rating, Pigweed [4, 14]: 0; Pigweed plant response rating [4, 15]: 0; Plant response rating, Ragweed [5, 12]: 0; Plant response rating, Ragweed [5, 13]: 10; Plant response rating, Ragweed [5, 14]: 0; Plant response rating, Wheat [6, 13]: 0; Plant response rating, Wheat [6, 14]: 0; Plant response rating, Blackgrass [7, 13]: 10; Plant response rating, Blackgrass [7, 14]: 0; Plant response rating, Galium [8, 13]: 0; Plant response rating, Galium [8, 14]: 0; Barnyardgrass plant response rating [9]: 0; Ducksalad plant response rating [10]: 0; Rice plant response rating (rice (Oryza sativa)): 0; Sedge, Umbrella plant response rating [11]: 0 |
| CC(C)(F)c1cc(-c2ccccc2Oc2ncc(Cl)cn2)no1 [Compound 236] | 0 | 20 | 0 | 30 | 10 | 30 | 0 | 80 | 30 | 0 | 10 | 30 | 0 | 90 | 30 | 90 | 20 | 100 | 60 | 70 | Plant response rating, Pigweed [4, 14]: 30; Pigweed plant response rating [4, 15]: 100; Plant response rating, Ragweed [5, 12]: 0; Plant response rating, Ragweed [5, 13]: 20; Plant response rating, Ragweed [5, 14]: 0; Ragweed plant response rating [5, 15]: 0; Plant response rating, Wheat [6, 13]: 20; Plant response rating, Wheat [6, 14]: 0; Plant response rating, Blackgrass [7, 13]: 40; Plant response rating, Blackgrass [7, 14]: 20; Plant response rating, Galium [8, 13]: 100; Plant response rating, Galium [8, 14]: 30; Barnyardgrass plant response rating [9]: 0; Ducksalad plant response rating [10]: 75; Rice plant response rating (rice (Oryza sativa)): 0; Sedge, Umbrella plant response rating [11]: 40 |
| Cn1nc(-c2ccccc2Oc2ncc(Cl)cn2)cc1C(F)(F)F [Compound 237] | 0 | 0 | 0 | 0 | 0 | 0 | 0 | 0 | 0 | 0 | 0 | 0 | 0 | 0 | 0 | 0 | 0 | 0 | 0 | 0 | Plant response rating, Pigweed [4, 14]: 0; Pigweed plant response rating [4, 15]: 0; Plant response rating, Ragweed [5, 12]: 0; Plant response rating, Ragweed [5, 13]: 0; Plant response rating, Ragweed [5, 14]: 0; Ragweed plant response rating [5, 15]: 0; Plant response rating, Wheat [6, 13]: 0; Plant response rating, Wheat [6, 14]: 0; Plant response rating, Blackgrass [7, 13]: 0; Plant response rating, Blackgrass [7, 14]: 0; Plant response rating, Galium [8, 13]: 0; Plant response rating, Galium [8, 14]: 0; Barnyardgrass plant response rating [9]: 0; Ducksalad plant response rating [10]: 0; Rice plant response rating (rice (Oryza sativa)): 0; Sedge, Umbrella plant response rating [11]: 0 |
| Cc1csc(-c2c(C#N)cccc2Oc2ncc(Cl)cn2)c1 [Compound 238] | 0 | 0 | 0 | 0 | 0 | 30 | 0 | 40 | 20 | 0 | 0 | 10 | 0 | 20 | 0 | 80 | 20 | 0 | 0 | 20 | Plant response rating, Pigweed [4, 14]: 10; Pigweed plant response rating [4, 15]: 10; Plant response rating, Ragweed [5, 12]: 0; Plant response rating, Ragweed [5, 13]: 0; Plant response rating, Ragweed [5, 14]: 0; Ragweed plant response rating [5, 15]: 0; Plant response rating, Wheat [6, 13]: 0; Plant response rating, Wheat [6, 14]: 0; Plant response rating, Blackgrass [7, 13]: 0; Plant response rating, Blackgrass [7, 14]: 0; Plant response rating, Galium [8, 13]: 40; Plant response rating, Galium [8, 14]: 0; Barnyardgrass plant response rating [9]: 20; Ducksalad plant response rating [10]: 45; Rice plant response rating (rice (Oryza sativa)): 15; Sedge, Umbrella plant response rating [11]: 65 |
